Assay results taken from patent publication US12129223B2, “Lipids for use in lipid nanoparticle formulations” (Acuitas Therapeutics, Inc., priority 2021, dated 2024).

Columns and labels:
[1] = Determination of pKa of formulated lipids (TNS fluorescence assay in lipid nanoparticles); type: physicochemical; conditions: lipid nanoparticles (compound/DSPC/cholesterol/PEG-lipid), lipid formulated in LNP (lipid/DSPC/cholesterol/PEG-lipid), pH at half-maximal intensity
Experimental: As described elsewhere, the pKa of formulated lipids is correlated with the effectiveness of LNPs for delivery of nucleic acids (see Jayaraman et al, Angewandte Chemie, International Edition (2012), 51(34), 8529-8533; Semple et al, Nature Biotechnology 28, 172-176 (2010)). In some embodiments, the preferred range of pKa is ˜5 to ˜7. The pKa of each lipid is determined in lipid nanoparticles using an assay based on fluorescence of 2-(p-toluidino)-6-napthalene sulfonic acid (TNS). Lipid nanoparticles comprising compound of structure (I)/DSPC/cholesterol/PEG-lipid (50/10/38.5/1.5 or 47.5:10:40.7:1.8 mol %) in PBS at a concentration of 0.4 mM total lipid are prepared using the in-line process as described in Example 1. TNS is prepared as a 100 μM stock solution in distilled water. Vesicles are diluted to 24 μM lipid in 2 mL of buffered solutions containing 10 mM HEPES, 10 mM MES, 10 mM ammonium acetate, and 130 mM NaCl, where the pH ranged from 2.5 to 11. An aliquot of the TNS solution is added to give a final concentration of 1 μM and following vortex mixing fluorescence intensity is measured at room temperature in a SLM Aminco Series 2 Luminescence Spectrophotometer using excitation and emission wavelengths of 321 nm and 445 nm. A sigmoidal best fit analysis is applied to the fluorescence data and the pKa is measured as the pH giving rise to half-maximal fluorescence intensity.

human IgG in mouse serum = assay: Immunoglobulin G (IgG) mRNA in vivo evaluation using lipid nanoparticle compositions; set-up: species or system mice; conditions: LNP with IgG mRNA, tail vein injection, serum 24 hours after administration; for Serum IgG @ 0.3 mg/kg: 0.3 mg mRNA/kg; for Serum IgG @ 1.0 mg/kg: 1.0 mg mRNA/kg
Experimental: A lipid of structure (I), DSPC, cholesterol and PEG-lipid are solubilized in ethanol at a molar ratio of 50:10:38.5:1.5 or 47.5:10:40.7:1.8. Lipid nanoparticles (LNP) are prepared at a total lipid to mRNA weight ratio of approximately 10:1 to 40:1. Briefly, the mRNA is diluted to 0.2 mg/mL in 10 to 50 mM citrate buffer, pH 4 or 10 to 25 mM acetate buffer, pH 4. Syringe pumps are used to mix the ethanolic lipid solution with the mRNA aqueous solution at a ratio of about 1:5 to 1:3 (vol/vol) with total flow rates above 15 mL/min. The ethanol is then removed and the external buffer replaced with PBS by dialysis. Finally, the lipid nanoparticles are filtered through a 0.2 µm pore sterile filter.
Studies are performed in 6-8 week old CD-1/ICR mice (Envigo) according to guidelines established by an institutional animal care committee (ACC) and the Canadian Council on Animal Care (CCAC). Varying doses of mRNA-lipid nanoparticle are systemically administered by tail vein injection and animals euthanized at a specific time point (e.g., 24 hours) post-administration. The whole blood is collected, and the serum subsequentially separated by centrifuging the tubes of the whole blood at 2000×g for 10 minutes at 4° C. and stored at −80° C. until use for analysis.
For immunoglobulin G (IgG) ELISA (Life Diagnostics Human IgG ELISA kit), the serum samples are diluted at 100 to 15000 folds with 1×diluent solution. 100 μL of diluted serum is dispensed into anti-human IgG coated 96-well plate in duplicate alongside human IgG standards and incubated in a plate shaker at 150 rpm at 25° C. for 45 minutes. The wells are washed 5 times with 1× wash solution using a plate washer (400 μL/well). 100 μL of HRP conjugate is added into each well and incubated in a plate shaker at the same condition above. The wells are washed 5 times again with 1× wash solution using a plate washer (400 μL/well). 100 μL of TMB reagent is added into each well and incubated in a plate shaker at the same condition above. The reaction is stopped by adding 100 μL of Stop solution to each well. The absorbance is read at 450 nm (A450) with a microplate reader. The amount of human IgG in mouse serum is determined by plotting A450 values for the assay standard against human IgG concentration.
Representative compounds of the disclosure shown in Table 2 were formulated using the following molar ratio: 50% cationic lipid/10% distearoylphosphatidylcholine (DSPC)/38.5% Cholesterol/1.5% PEG lipid 2-[2-(ω-methoxy(polyethyleneglycol2000)ethoxy]-N,N-ditetradecyl acetamide) or 47.5% cationic lipid/10% DSPC/40.7% Cholesterol/1.8% PEG lipid. Relative activity was determined by measuring luciferase expression in the liver 4 hours following administration via tail vein injection as described in Example 1 or by measuring the amount of human IgG in mouse serum as described in example 2. The activity was compared at a dose of 1.0 or 0.5 or 0.3 mg mRNA/kg and expressed as ng luciferase/g liver measured 4 hours after administration, as described in Example 1 or as μg IgG/mL serum measured 24 hours after administration, as described in Example 2. Compound numbers in Table 2 refer to the compound numbers of Table 1.

Row | pKa [1] | SMILES | Serum IgG @ 0.3 mg/kg (human IgG in mouse serum) [µg/mL] | Serum IgG @ 1.0 mg/kg (human IgG in mouse serum) [µg/mL]
1 | 6.49 | CCCCCCCCCCN(CCCCCCCCN(CCCCCO)CCCCCCCCN(CCCCCCCCCC)C(=O)CCCCCCCCC)C(=O)CCCCCCCCC [Compound I-66, N,N′-(((5-hydroxypentyl)azanediyl)bis(octane-8,1-diyl))bis(N-decyldecanamide)] | 32.06 ± 5.07 | 253.37 ± 52.48
2 | 6.18 | CCCCCCCCCCCCN(CCCCCCCCN(C)CCCCCCCCN(CCCCCCCCCCCC)C(=O)CCCCCCCCCCC)C(=O)CCCCCCCCCCC [Compound I-67, N,N′-((methylazanediyl)bis(octane-8,1-diyl))bis(N-dodecyldodecanamide)] | 7.19 ± 1.41 | 62.94 ± 13.88
3 | 6.41 | CCCCCCCCCCCCN(CCCCCCCCN(CCCCCO)CCCCCCCCN(CCCCCCCCCCCC)C(=O)CCCCCCCCCCC)C(=O)CCCCCCCCCCC [Compound I-68, N,N′-(((5-hydroxypentyl)azanediyl)bis(octane-8,1-diyl))bis(N-dodecyldodecanamide)] | 12.30 ± 2.41 | 121.93 ± 34.85
4 | 6.32 | CCCCCCCCCCN(CCCCCCCCN(C)CCCCCCCC(=O)N(CCCCCCCCCC)CCCCCCCCCC)C(=O)CCCCCCCCC [Compound I-73, N-decyl-N-(8-((8-(didecylamino)-8 oxooctyl)(methyl)amino)octyl)decanamide] | 27.72 ± 6.23 | 213.39 ± 18.85
5 | 6.53 | CCCCCCCCCCN(CCCCCCCCN(CCCCCO)CCCCCCCC(=O)N(CCCCCCCCCC)CCCCCCCCCC)C(=O)CCCCCCCCC [Compound I-74, N-decyl-N-(8-((8-(didecylamino)-8-oxooctyl)(5-hydroxypentyl)amino)octyl)decanamide] | 50.16 ± 6.58 | 292.44 ± 40.55
6 | 6.48 | CCCCCCCCCCN(CCCCCCCCCC)C(=O)CCCCCCN(C)CCCCCCC(=O)N(CCCCCCCCCC)CCCCCCCCCC [Compound I-75, 7,7′-(methylazanediyl)bis(N,N-didecylheptanamide)] | 84.87 ± 12.19 | 343.06 ± 42.39
7 | 6.71 | CCCCCCCCCCN(CCCCCCCCCC)C(=O)CCCCCCCN(CCCCCCCC(=O)N(CCCCCCCCCC)CCCCCCCCCC)CCN(C)C [Compound I-77] | 17.45 ± 2.05 | 
8 | 6.47 | CCCCCCCCCCN(CCCCCCCCCC)C(=O)C(F)CCCCCCN(CCCCCO)CCCCCCC(F)C(=O)N(CCCCCCCCCC)CCCCCCCCCC (stereo not shown) [Compound I-82, 8,8′-((5-hydroxypentyl)azanediyl)bis(N,N-didecyl-2-fluorooctanamide)] | 24.36 ± 4.39 | 239.26 ± 39.80
9 | 6.12 | CCCCCCCCCCN(CCCCCCCCCC)C(=O)C(F)CCCCCCN(C)CCCCCCC(F)C(=O)N(CCCCCCCCCC)CCCCCCCCCC (stereo not shown) [Compound I-83, 8,8′-(methylazanediyl)bis(N,N-didecyl-2-fluorooctanamide)] | 12.94 ± 2.03 | 142.26 ± 26.31
10 | 6.81 | CCCCCCCCCCN(CCCCCCCCCC)C(=O)CCCN(CCCCCO)CCCC(=O)N(CCCCCCCCCC)CCCCCCCCCC [Compound I-85, 4,4′-((5-hydroxypentyl)azanediyl)bis(N,N-didecylbutanamide)] | 10.74 ± 2.79 | 
